This is an account of results in patent US8865750B2, “Small molecule inhibitors of RGS proteins” (The Regents of The University of Michigan, priority 2011, dated 2014).

One may read the IC50 as the concentration at which inhibition is half-maximal. Higher therefore signals a need for much substance.

The target of one experiment is RGS4/Gα0 interaction (Homo sapiens (Human), UniProt P49798). As to the kind of experiment: RGS4-GFP membrane translocation (confocal microscopy, HEK-293T). It is filed as cell-based. The note with it: 100 μM where stated. The protocol: Cellular Localization Studies:
HEK-293T cells grown to 80-90% confluency in 6-well dishes in DMEM supplemented with 10% fetal bovine serum and Penicillin (100 units/ml)-Streptomycin (100 μg/ml) under 5% CO2 at 37° C. RGS and Gα0 expression was induced by transient co-transfection with either 250 ng of full-length human RGS4 with an N-terminal GFP tag (RGS4pEGFP-C1) or a C-terminal RGS4-GFP (RGS4pDEST47) and 250 ng of pcDNA3.1 or pcDNA with wildtype human Gα0. Cells were split onto poly-D-lysine coated glass coverslips and cultured for 24-48 hours after transfection before live cell imaging. Images were acquired on an Olympus Fluoview 500 confocal microscope with a 60×1.40 numerical aperture (N.A) oil objective. Images were obtained by taking a series of stacks every 0.5 μm through the cell and combining the images into a composite stack. The light source for the fluorescent studies was a 488 nm laser with a 505-525 nm bandpass filter. Images were quantified using NIH ImageJ software version 1.43r.
Confocal Microscopy: HEK-293T cells grown to 80-90% confluency in 6-well dishes in DMEM supplemented with 10% fetal bovine serum and Penicillin (100 units/ml)-Streptomycin (100 μg/ml) under 5% CO2 at 37° C. […] Images were quantified using NIH ImageJ software version 1.43r.

A further experiment deals with PLCβ3 (Homo sapiens (Human), UniProt Q01970). The experiment is described as follows: PLCβ inhibition assay. The conditions noted are these: Table 7. It is filed as biochemical. On the procedure:
PLCβ inhibition assay: Lipid vesicles containing 200 μM phosphatidylethanolamine, 50 μM PIP2 (Avanti Polar Lipids), and ˜4000-8000 cpm [^3H]-labeled PIP2 (Perkin-Elmer) per assay were generated by combining the lipids in a borosilicate glass tube and drying the mixture under a stream of nitrogen. Dried lipids were resuspended in 50 mM HEPES pH 7, 80 mM KCl, 2 mM EGTA and 1 mM DTT using a bath sonicator. Activity assays were performed in a final volume of 60 μL containing 3 ng mL^−1 PLCβ3, 50 mM HEPES pH 7, 80 mM KCl, 15 mM NaCl, 0.83 mM MgCl2, 3 mM DTT, 1 mg mL^−1 BSA, 2.5 mM EGTA, 0.2 mM EDTA, 2% DMSO, and enough CaCl2 to give a free concentration of ˜200 nM. […] The reactions were initiated by the addition of liposomes and transferred to 30° C. for 5 min. Reactions were terminated by the addition of 100 μL 10 mg mL^−1 BSA and 200 μL 10% (w/v) ice-cold trichloroacetic acid. The reactions were centrifuged at 8000 g for 5 min to pellet proteins and liposomes, and 200 μL of the resulting supernatant containing free [^3H]-IP3 was measured by scintillation counting (Ghosh et al., (2004) Methods Mol Biol 237, 67-75) GSK-3β inhibition assay: […]

The target in another experiment is papain (Carica papaya (Papaya), UniProt P00784). As to the kind of experiment: biochemical. It is filed as biochemical. The source says:
Papain (Sigma-Aldrich, St. Louis, Mo.) activity was monitored by the increase in fluorescence caused by the liberation of fluorescein from autoquenched fluorescein-conjugated casein (AnaSpec, San Jose, Calif.).

The target in another experiment is RGS16 (Homo sapiens (Human), UniProt O15492). As to the kind of experiment: FCPIA: Gαo binding to RGS16. The conditions noted are these: Table 7. On the procedure:
FCPIA Dose Response and Reversibility Experiments:
FCPIA was performed as previously described using chemically biotinylated RGS proteins and AlexaFluor-532 labeled Gα0. (Roman et al., J Biomol Screen, 2009; Blazer, L. L., et al., Mol Pharmacol).
RGS/Gα binding studies: The binding of biotinylated RGS proteins to fluorescently labeled Gαo was measured by Flow Cytometry Protein Interaction Assay (FCPIA) method previously described (Roman et al., (2009) J Biomol Screen.; Blazer et al., (2010) Curr Protoc Cytom Chapter 13, Unit 13 11 11-15; Roman et al., (2007) Mol Pharmacol 71, 169-175) as were the measures of compound reversibility.

papain, sequence (P00784 134-345): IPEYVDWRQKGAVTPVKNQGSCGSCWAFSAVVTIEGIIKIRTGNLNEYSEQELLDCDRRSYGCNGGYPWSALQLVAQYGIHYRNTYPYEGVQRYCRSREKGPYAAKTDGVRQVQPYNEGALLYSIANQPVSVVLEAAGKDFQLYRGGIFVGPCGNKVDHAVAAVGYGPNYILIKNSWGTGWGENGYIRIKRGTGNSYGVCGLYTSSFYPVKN
RGS16, sequence (O15492 whole entry, species assumed): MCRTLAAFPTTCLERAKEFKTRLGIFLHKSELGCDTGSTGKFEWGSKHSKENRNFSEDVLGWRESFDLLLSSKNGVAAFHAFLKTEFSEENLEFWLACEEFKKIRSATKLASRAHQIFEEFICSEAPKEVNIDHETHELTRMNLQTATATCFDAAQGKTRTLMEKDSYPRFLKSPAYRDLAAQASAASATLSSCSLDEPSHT
PLCβ3, sequence (Q01970 whole entry, species assumed): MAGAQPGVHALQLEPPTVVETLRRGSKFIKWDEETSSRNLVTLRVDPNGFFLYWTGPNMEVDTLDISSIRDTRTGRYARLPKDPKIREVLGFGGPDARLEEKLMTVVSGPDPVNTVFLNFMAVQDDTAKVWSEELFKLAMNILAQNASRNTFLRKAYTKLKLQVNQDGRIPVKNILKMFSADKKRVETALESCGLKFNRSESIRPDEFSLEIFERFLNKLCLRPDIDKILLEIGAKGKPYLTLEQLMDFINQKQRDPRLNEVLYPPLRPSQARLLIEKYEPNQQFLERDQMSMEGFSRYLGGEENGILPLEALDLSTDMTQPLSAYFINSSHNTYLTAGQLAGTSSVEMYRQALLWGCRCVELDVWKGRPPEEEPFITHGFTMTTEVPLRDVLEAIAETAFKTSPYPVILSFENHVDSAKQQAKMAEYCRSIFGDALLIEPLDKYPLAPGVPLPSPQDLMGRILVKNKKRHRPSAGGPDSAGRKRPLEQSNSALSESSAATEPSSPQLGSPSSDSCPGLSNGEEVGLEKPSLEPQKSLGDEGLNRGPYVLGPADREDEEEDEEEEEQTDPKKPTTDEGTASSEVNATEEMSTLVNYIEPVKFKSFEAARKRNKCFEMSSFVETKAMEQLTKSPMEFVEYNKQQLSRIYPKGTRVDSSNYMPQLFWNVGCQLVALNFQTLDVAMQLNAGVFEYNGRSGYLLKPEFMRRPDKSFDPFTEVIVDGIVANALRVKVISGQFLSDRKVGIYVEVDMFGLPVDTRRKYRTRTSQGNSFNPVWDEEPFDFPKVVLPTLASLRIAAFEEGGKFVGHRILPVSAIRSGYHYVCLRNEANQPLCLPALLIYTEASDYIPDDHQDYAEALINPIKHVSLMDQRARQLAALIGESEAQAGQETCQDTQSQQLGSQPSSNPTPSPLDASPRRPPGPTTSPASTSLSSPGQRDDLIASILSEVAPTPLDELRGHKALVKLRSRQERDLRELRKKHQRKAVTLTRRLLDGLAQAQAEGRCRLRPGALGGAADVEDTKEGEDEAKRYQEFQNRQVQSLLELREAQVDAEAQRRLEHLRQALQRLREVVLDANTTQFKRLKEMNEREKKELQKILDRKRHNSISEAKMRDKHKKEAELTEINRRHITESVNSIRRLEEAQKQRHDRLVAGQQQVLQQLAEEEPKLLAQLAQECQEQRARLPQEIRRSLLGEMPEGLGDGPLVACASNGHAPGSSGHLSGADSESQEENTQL
RGS4/Gα0 interaction, sequence (P49798 whole entry): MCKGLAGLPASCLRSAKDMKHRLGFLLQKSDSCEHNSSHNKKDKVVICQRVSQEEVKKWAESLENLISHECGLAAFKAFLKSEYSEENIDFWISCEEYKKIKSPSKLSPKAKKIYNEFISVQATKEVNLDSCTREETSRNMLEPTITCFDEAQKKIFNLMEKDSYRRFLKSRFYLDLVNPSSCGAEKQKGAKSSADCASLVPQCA

For `CCCCn1c(=O)sn(CC)c1=O` [CCG-203769, 2-ethyl-4-butyl-1,2,4-thiadiazolidine-3,5-dione], the “reversal of Gα0-induced RGS4 membrane translocation” value on RGS4/Gα0 interaction is reported as “reverses the membrane translocation”. In addition, the concentration for half-maximal inhibition (IC50) against PLCβ3 is over 100 µM; at papain (Table 7), over 100 µM; at RGS16 it was 6 µM. At papain (30 μM), the inhibition of papain result is listed as “unable to inhibit the protease activity of papain”.
